pIC50: −log10 of the molar value.
Legend:
Candida albicans [1] = assay: Minimum inhibitory concentration Candida albicans 2005E cell growth; format: functional
Candida albicans [2] = assay: Inhibitory concentration against Candida albicans 2005E protein synthesis; format: functional, organism-based

In the case of `CC(C)C1=CC2C[C@]3(C=O)C4CCC(C)C4C[C@]2(CO)[C@]13C(=O)O` (some centres not stated) [SORDARICIN], the MIC (Candida albicans [1]) was > 376 µM and the pIC50 (Candida albicans [2]) was 6.30.
